{"source": "patent US20040235007A1", "about": "“Method for detecting negatively supercoiled DNA” (National Institute of Genetics, priority 2003, published 2004)", "key": {"[1]": {"tested_on": "hsp70-coding region", "experiment": "Southern analysis of psoralen crosslinking in salivary glands", "type": "cell-based, Drosophila melanogaster", "conditions": "heat-shocked salivary gland chromosomes treated with α-amanitin prior to the crosslinking step; FIG. 3 lanes 6 and 7", "method": "(§1) Drosophila melanogaster Oregon R was grown at 18° C. According to the test protocol, some third-instar larvae were subjected to heat shock treatment; i.e., the larvae were collected in a polypropylene tube, and the tube was submerged in a 37° C. water bath for 10 minutes. Salivary glands were obtained through dissection of the larvae in a dissection buffer (10 mM HEPES-KOH (pH 7.6), 5 mM MgCl2, 5 mM KCl, 130 mM NaCl, 1% polyethylene glycol 6000). Also according to the test protocol, some of the salivary gland specimens were exposed to X-ray irradiation for 60 minutes at a dose rate of about 3 Gy/min (TORREX CABINET X-RAY SYSTEM Model TRX2800, Faxitron), whereby nicks were introduced into DNA.\nApplication of heat shock and dissection of larvae were performed in a manner similar to those employed for staining. […]\nAfter electrophoresis, the gel was incubated with a denaturing solution (0.5M NaOH, 1.5M NaCl) at 65° C. for 100 minutes for reverse crosslinking of DNA with psoralen. […] Hybridization signals were detected by use of X-ray film. […]\nThe protocol will be described briefly as follows. […] The DNA fragments were blotted onto a nylon membrane. hsp70 located at 87A7 (FIG. 1, CRs and DDS) was analyzed using probes through the Southern method. […]"}, "[2]": {"tested_on": "negative supercoils of DNA on salivary gland chromosomes", "experiment": "Staining of salivary gland chromosomes with biotinylated psoralen / Alexa 488-labeled streptavidin", "type": "cell-based, Drosophila melanogaster", "method": "as §1\nFour or five pairs of salivary glands were treated with a dissection buffer (40 μL) containing 0.01% digitonin and rinsed with a dissection buffer containing no digitonin. Subsequently, the resultant salivary glands were treated with a dissection buffer containing 0.2 ng/ml biotinylated psoralen for 10 minutes. […] Br-UTP was detected with anti-BrdU monoclonal antibody (Roche) and rhodamin-labeled anti-mouse IgG antibody.\nBiotinylated psoralen was detected with Alexa 488-labeled streptavidin (Molecular Probe). […] Fluoroimages were analyzed with a Carl Zeiss Axioplan 2 microscope and IP lab software.\nIn order to visualize negative supercoils of DNA on salivary gland chromosomes throughout the entire genome, we have extended the psoralen crosslinking protocol, using a protocol in which biotinylated psoralen is detected with fluorescence-labeled streptavidin. […] Biotinylated psoralen was detected with Alexa 488-labeled streptavidin. […] Such signals were not detected when the chromosomes had been treated with a psoralen-free buffer, or when the crbsslinking step was not performed after treatment with psoralen. […] When chromosomes had been irradiated with X-ray (180 Gy) before crosslinking with biotinylated psoralen to thereby introduce nicks into the DNA, psoralen signals which may otherwise appear in interbands and puffs were not detected (FIGS. 5A to 5C). […]"}, "[3]": {"conditions": "heat shocked larvae, α-amanitin treatment prior to crosslinking, FIGS. 7D to 7F"}}}
{"substance": "α-Amanitin", "values": [{"measurement": "crosslink-related signals (psoralen crosslinking, Southern)", "setting": "[1]", "result": "substantially no crosslink-related signals were detected"}, {"measurement": "configuration of heat shock puffs", "setting": "[2]; [3]", "result": "did not affect"}, {"measurement": "psoralen signals in heat shock puffs", "setting": "[2]; [3]", "result": "not detected"}, {"measurement": "psoralen signals in interbands and puffs", "setting": "[2]; non-heat shocked, 3 μg/mL α-amanitin before crosslinking with biotinylated psoralen, FIGS. 5D and 5E", "result": "undetected"}]}
